In ChEMBL document CHEMBL1201862, “PubChem BioAssay data set” (2004):
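Values below derive from 48-hour exposures of cells grown in 96-well plates, with endpoints linearly interpolated between the two concentrations bracketing the appropriate inhibition level. The concentration for 50% growth inhibition is given as GI50.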 Activity calls are given as the source filed them. Cut-off read from the data, not from the text of the source: active = GI50 up to about 1.1 µM and inactive = higher.

Legend:
Assay in all cases: NCI-60 cell line screen, 48 h
A549 = system: A549
NCI-H522 = system: NCI-H522
A498 = system: A498
OVCAR-5 = system: OVCAR-5
DU-145 = system: DU-145
HCT-116 = system: HCT-116
UACC-62 = system: UACC-62
HOP-92 = system: HOP-92
UO-31 = system: UO-31
786-0 = system: 786-0
SNB-75 = system: SNB-75
SK-OV-3 = system: SK-OV-3
OVCAR-3 = system: OVCAR-3
RXF 393 = system: RXF 393
SF-268 = system: SF-268
CAKI-1 = system: CAKI-1
Malme-3M = system: Malme-3M
KM12 = system: KM12
NCI-H226 = system: NCI-H226
MOLT-4 = system: MOLT-4

Question: For COc1ccc(/C=C/c2cc(O)cc(OC)c2)cc1, which GI50 (A549) is on record?
Answer: 97.3 µM (inactive)

Question: And the GI50 (NCI-H522)?
Answer: 65.3 µM (inactive)

Question: What about the GI50 (A498) of the same compound?
Answer: > 100 µM (inactive)

Question: And the GI50 (OVCAR-5)?
Answer: > 100 µM (inactive)

Question: And the GI50 (DU-145)?
Answer: > 100 µM (inactive)

Question: And the GI50 (HCT-116)?
Answer: > 100 µM (inactive)

Question: What about the GI50 (UACC-62) of the same compound?
Answer: > 100 µM (inactive)

Question: What about the GI50 (HOP-92) of the same compound?
Answer: 50.7 µM (inactive)

Question: And the GI50 (UO-31)?
Answer: > 100 µM (inactive)

Question: And the GI50 (786-0)?
Answer: > 100 µM (inactive)

Question: And the GI50 (SNB-75)?
Answer: > 100 µM (inactive)

Question: What about the GI50 (SK-OV-3) of the same compound?
Answer: > 100 µM (inactive)

Question: And the GI50 (OVCAR-3)?
Answer: > 100 µM (inactive)

Question: And the GI50 (RXF 393)?
Answer: > 100 µM (inactive)

Question: And the GI50 (SF-268)?
Answer: > 100 µM (inactive)

Question: And the GI50 (CAKI-1)?
Answer: > 100 µM (inactive)

Question: What about the GI50 (Malme-3M) of the same compound?
Answer: 86.3 µM (inactive)

Question: And the GI50 (KM12)?
Answer: 40.9 µM (inactive)

Question: And the GI50 (NCI-H226)?
Answer: > 100 µM (inactive)

Question: What about the GI50 (MOLT-4) of the same compound?
Answer: 56.5 µM (inactive)

Question: For Cc1ccc(C2=Nc3c(c(C)nn3-c3ccccc3)N=C(C(=O)O)C2)cc1, which GI50 (A549) is on record?
Answer: > 10 µM (inactive)

Question: And the GI50 (NCI-H522)?
Answer: > 10 µM (inactive)

Question: What about the GI50 (A498) of the same compound?
Answer: > 10 µM (inactive)

Question: What about the GI50 (OVCAR-5) of the same compound?
Answer: > 10 µM (inactive)

Question: And the GI50 (DU-145)?
Answer: > 10 µM (inactive)

Question: What about the GI50 (HCT-116) of the same compound?
Answer: > 10 µM (inactive)

Question: What about the GI50 (UACC-62) of the same compound?
Answer: > 10 µM (inactive)

Question: And the GI50 (HOP-92)?
Answer: > 10 µM (inactive)

Question: And the GI50 (UO-31)?
Answer: > 10 µM (inactive)

Question: What about the GI50 (786-0) of the same compound?
Answer: > 10 µM (inactive)

Question: And the GI50 (SNB-75)?
Answer: > 10 µM (inactive)

Question: And the GI50 (SK-OV-3)?
Answer: > 10 µM (inactive)

Question: What about the GI50 (OVCAR-3) of the same compound?
Answer: > 10 µM (inactive)

Question: And the GI50 (RXF 393)?
Answer: > 10 µM (inactive)

Question: What about the GI50 (SF-268) of the same compound?
Answer: > 10 µM (inactive)

Question: What about the GI50 (CAKI-1) of the same compound?
Answer: > 10 µM (inactive)

Question: And the GI50 (Malme-3M)?
Answer: > 10 µM (inactive)

Question: And the GI50 (KM12)?
Answer: > 10 µM (inactive)

Question: And the GI50 (NCI-H226)?
Answer: > 10 µM (inactive)

Question: What about the GI50 (MOLT-4) of the same compound?
Answer: > 10 µM (inactive)

Question: COC(=O)c1sc2c(c1C(=O)OC)/C(=N/c1ccc(OC)cc1)S/C2=N\c1ccc(OC)cc1 was tested. Which GI50 (A549) did it give?
Answer: 1.31 µM (inactive)

Question: What about the GI50 (NCI-H522) of the same compound?
Answer: 0.541 µM (active)

Question: And the GI50 (A498)?
Answer: 1.65 µM (inactive)

Question: What about the GI50 (OVCAR-5) of the same compound?
Answer: 1.73 µM (inactive)

Question: What about the GI50 (DU-145) of the same compound?
Answer: 0.525 µM (active)

Question: What about the GI50 (HCT-116) of the same compound?
Answer: 0.451 µM (active)

Question: And the GI50 (UACC-62)?
Answer: 1.45 µM (inactive)

Question: What about the GI50 (HOP-92) of the same compound?
Answer: 1.51 µM (inactive)

Question: What about the GI50 (UO-31) of the same compound?
Answer: 0.865 µM (active)

Question: And the GI50 (786-0)?
Answer: 0.426 µM (active)

Question: And the GI50 (SNB-75)?
Answer: 0.787 µM (active)

Question: What about the GI50 (SK-OV-3) of the same compound?
Answer: 1.69 µM (inactive)

Question: What about the GI50 (OVCAR-3) of the same compound?
Answer: 0.611 µM (active)

Question: What about the GI50 (RXF 393) of the same compound?
Answer: 0.47 µM (active)

Question: And the GI50 (SF-268)?
Answer: 1.55 µM (inactive)

Question: What about the GI50 (CAKI-1) of the same compound?
Answer: 2.05 µM (inactive)

Question: What about the GI50 (Malme-3M) of the same compound?
Answer: 1.74 µM (inactive)

Question: And the GI50 (KM12)?
Answer: 1.22 µM (inactive)

Question: What about the GI50 (NCI-H226) of the same compound?
Answer: 1.74 µM (inactive)

Question: What about the GI50 (MOLT-4) of the same compound?
Answer: 0.248 µM (active)

Question: What does the source list for O=C(O)CC1NCc2cc3ccccc3nc21 (stereo not given)?
Answer: GI50 (A549): > 100 µM (inactive); GI50 (NCI-H522): > 100 µM (inactive); GI50 (A498): > 100 µM (inactive); GI50 (OVCAR-5): > 100 µM (inactive); GI50 (DU-145): > 100 µM (inactive); GI50 (HCT-116): > 100 µM (inactive); GI50 (UACC-62): > 100 µM (inactive); GI50 (HOP-92): > 100 µM (inactive); GI50 (UO-31): > 100 µM (inactive); GI50 (786-0): > 100 µM (inactive); GI50 (SNB-75): > 100 µM (inactive); GI50 (SK-OV-3): > 100 µM (inactive); GI50 (OVCAR-3): > 100 µM (inactive); GI50 (RXF 393): > 100 µM (inactive); GI50 (SF-268): > 100 µM (inactive); GI50 (CAKI-1): > 100 µM (inactive); GI50 (Malme-3M): > 100 µM (inactive); GI50 (KM12): > 100 µM (inactive); GI50 (NCI-H226): > 100 µM (inactive); GI50 (MOLT-4): > 100 µM (inactive)

Question: How did the GI50 (A549) turn out when CC[N+](CC)(CCNCC(N)=O)CC(N)=O was run?
Answer: > 10 µM (inactive)

Question: And the GI50 (NCI-H522)?
Answer: > 10 µM (inactive)

Question: What about the GI50 (A498) of the same compound?
Answer: > 10 µM (inactive)

Question: What about the GI50 (OVCAR-5) of the same compound?
Answer: > 10 µM (inactive)

Question: What about the GI50 (DU-145) of the same compound?
Answer: > 10 µM (inactive)

Question: What about the GI50 (HCT-116) of the same compound?
Answer: > 10 µM (inactive)

Question: And the GI50 (UACC-62)?
Answer: > 10 µM (inactive)

Question: And the GI50 (HOP-92)?
Answer: > 10 µM (inactive)

Question: And the GI50 (UO-31)?
Answer: > 10 µM (inactive)

Question: What about the GI50 (786-0) of the same compound?
Answer: > 10 µM (inactive)

Question: And the GI50 (SNB-75)?
Answer: > 10 µM (inactive)

Question: What about the GI50 (SK-OV-3) of the same compound?
Answer: > 10 µM (inactive)

Question: And the GI50 (OVCAR-3)?
Answer: > 10 µM (inactive)

Question: What about the GI50 (RXF 393) of the same compound?
Answer: > 10 µM (inactive)

Question: And the GI50 (SF-268)?
Answer: > 10 µM (inactive)

Question: And the GI50 (CAKI-1)?
Answer: > 10 µM (inactive)

Question: What about the GI50 (Malme-3M) of the same compound?
Answer: > 10 µM (inactive)

Question: And the GI50 (KM12)?
Answer: > 10 µM (inactive)

Question: What about the GI50 (NCI-H226) of the same compound?
Answer: > 10 µM (inactive)

Question: And the GI50 (MOLT-4)?
Answer: > 10 µM (inactive)

Question: For C[Si](C)(C)CCOCN(C(=O)C1=CCC2(CC1)OCCO2)c1ccccc1I, which GI50 (A549) is on record?
Answer: 23.6 µM (inactive)

Question: And the GI50 (NCI-H522)?
Answer: 21.1 µM (inactive)

Question: And the GI50 (A498)?
Answer: 12.4 µM (inactive)

Question: And the GI50 (OVCAR-5)?
Answer: 20 µM (inactive)

Question: And the GI50 (DU-145)?
Answer: 25.4 µM (inactive)

Question: And the GI50 (HCT-116)?
Answer: 14.1 µM (inactive)

Question: What about the GI50 (UACC-62) of the same compound?
Answer: 16.9 µM (inactive)

Question: What about the GI50 (HOP-92) of the same compound?
Answer: 0.121 µM (active)

Question: And the GI50 (UO-31)?
Answer: 19.4 µM (inactive)

Question: What about the GI50 (786-0) of the same compound?
Answer: 17.7 µM (inactive)

Question: What about the GI50 (SNB-75) of the same compound?
Answer: 17.7 µM (inactive)

Question: And the GI50 (SK-OV-3)?
Answer: 16.8 µM (inactive)

Question: And the GI50 (OVCAR-3)?
Answer: 21.6 µM (inactive)

Question: And the GI50 (RXF 393)?
Answer: 17.5 µM (inactive)

Question: And the GI50 (SF-268)?
Answer: 21.8 µM (inactive)

Question: What about the GI50 (CAKI-1) of the same compound?
Answer: 24.2 µM (inactive)

Question: What about the GI50 (Malme-3M) of the same compound?
Answer: 35.7 µM (inactive)

Question: What about the GI50 (KM12) of the same compound?
Answer: 18.7 µM (inactive)

Question: What about the GI50 (NCI-H226) of the same compound?
Answer: 22.9 µM (inactive)

Question: What about the GI50 (MOLT-4) of the same compound?
Answer: 10.8 µM (inactive)

Question: For N#Cc1c(-c2ccc(Cl)cc2)c2c([nH]c1=O)-c1cc([N+](=O)[O-])ccc1CCC2, which GI50 (A549) is on record?
Answer: 18.8 µM (inactive)

Question: And the GI50 (NCI-H522)?
Answer: 13.3 µM (inactive)

Question: What about the GI50 (A498) of the same compound?
Answer: 16.1 µM (inactive)

Question: And the GI50 (OVCAR-5)?
Answer: 17.2 µM (inactive)

Question: What about the GI50 (DU-145) of the same compound?
Answer: 35.8 µM (inactive)

Question: What about the GI50 (HCT-116) of the same compound?
Answer: 14.3 µM (inactive)

Question: And the GI50 (UACC-62)?
Answer: 13.5 µM (inactive)

Question: And the GI50 (HOP-92)?
Answer: 14.4 µM (inactive)

Question: And the GI50 (UO-31)?
Answer: 16 µM (inactive)

Question: And the GI50 (786-0)?
Answer: 25.1 µM (inactive)

Question: What about the GI50 (SNB-75) of the same compound?
Answer: 23.3 µM (inactive)

Question: What about the GI50 (SK-OV-3) of the same compound?
Answer: 28.7 µM (inactive)

Question: And the GI50 (OVCAR-3)?
Answer: 12.8 µM (inactive)

Question: And the GI50 (RXF 393)?
Answer: 16.1 µM (inactive)

Question: And the GI50 (SF-268)?
Answer: 17.3 µM (inactive)

Question: What about the GI50 (CAKI-1) of the same compound?
Answer: 19.9 µM (inactive)

Question: And the GI50 (Malme-3M)?
Answer: 25.7 µM (inactive)

Question: And the GI50 (KM12)?
Answer: 16.4 µM (inactive)

Question: What about the GI50 (NCI-H226) of the same compound?
Answer: 17.1 µM (inactive)

Question: What about the GI50 (MOLT-4) of the same compound?
Answer: 38 µM (inactive)
